Literature values, collected in the CATMoS acute toxicity set (Mansouri et al. 2021).
Several values for one entry are separate records, joined by “and”; a condition that tells them apart may be missing. Identical values can stand only once.

Experiment: rat acute oral toxicity
Conditions: in vivo
From the text: […]The data set underlying the modeling effort for this project was initially compiled by NICEATM and U.S. EPA’s CCTE. Briefly, LD50 data were collected from rat acute oral systemic toxicity tests, including limit tests, ranges/confidence intervals, and discrete LD50 values. The full data set included 21,200 LD50 entries for 15,688 substances. […] Data were reviewed to ensure that LD50 values with obvious errors in the extracted data such as unit conversion errors (e.g., comma and decimal separator misplacements) were either fixed or removed. After this review, 16,209 LD50 values remained. Many of the chemicals represented had multiple LD50 entries, requiring that a single representative value per Chemical Abstracts Service Registry Number (CASRN) identifier be defined to facilitate modeling efforts. Based on ATWG feedback and to define the representative LD50 as a protective value while accounting for the distribution across multiple LD50s, the median of the lowest quartile was computed using only discrete LD50 values (omitting limit test data and range and confidence interval data). A detailed summary of the data compilation is available online on the NICEATM webpage dedicated to the collaborative modeling project (NTP 2020).
[…][…] For categorical designations, limit test and range/confidence interval LD50 data were integrated wherever possible. As such, the number of chemicals with end point values/calls varies across the modeling end points (Table 3) based on whether chemicals had representative LD50 values and/or other data. If a chemical had both, the representative value was used to determine categorical calls rather than limit test data. Some data were useable only for certain end points and categories depending on the thresholds. For example, ranges that spanned multiple hazard categories were considered only for the binary (very toxic/nontoxic) end points and omitted from rendering a determination for hazard category assignment.
[…]The final data set comprising 11,992 chemicals was split into training and evaluation sets […], respectively. This process was performed semirandomly by ordering chemicals based on the five end points (categorical and continuous LD50 values) and partitioning every fourth record into the evaluation set accordingly. This approach was taken to ensure an equivalent distribution of the LD50 values and the different hazard categories between the training and the evaluation sets without supervised sampling of the chemicals based on structures (Figure 1A). The sources of the chemical structures were also kept equivalent between the two sets, with chemical structures obtained from DSSTox, being the highest quality, representing over 75% of each set (Figure 1B).

Row | SMILES | LD50
1 | CN(C(O)=NC(C)(C)c1ccccc1)c1ccccc1 | 6130 mg/kg
2 | CCCc1ccc(C)cc1O | 730 mg/kg
3 | CC(C)(C)C(=O)C(Oc1ccc(Cl)cc1)n1ccnc1 (stereo not given) | 400 mg/kg
4 | CC(=O)N(OCCN(C)C)C12CC3CC(CC(C3)C1)C2 | 630 mg/kg
5 | COc1ccc(S(=O)(=O)Nc2nnc(C(C)(C)C)s2)cc1 | 1150 mg/kg
6 | FCCOC(Cl)C(Cl)(Cl)Cl (stereo not given) | 18 mg/kg
7 | CNC(=O)c1cc(-c2ccccc2)ccc1OCCO | 2700 mg/kg
8 | CC(=O)C=C1CCC2C13CCC(C)C(C3)C2(C)C (stereo not given) | 5200 mg/kg
9 | CCOP(=O)(OCC)SC=C(Cl)Cl | 1.75 mg/kg
10 | Nc1ccc(Oc2ccc(S(=O)(=O)c3ccc(Oc4ccc(N)cc4)cc3)cc2)cc1 | 220 mg/kg
11 | CN(C)c1ccc(O)cc1 | 689 mg/kg
12 | c1ccc(C(c2ccccc2)(c2ccccc2)N2CCOCC2)cc1 | 83 mg/kg
13 | CN(C)/N=N/c1ccc(C(N)=O)cc1 | 54 mg/kg
14 | N#CCCCCCN | 820 mg/kg
15 | C=CCCC(=O)O | 470 mg/kg
16 | NC(N)=[Se] | 50 mg/kg
17 | O=C=Nc1ccc(Cl)c(C(F)(F)F)c1 | 500 mg/kg
18 | CC(=O)OC(C)C(Cl)(Cl)Cl (stereo not given) | 900 mg/kg
19 | CCOC1CC2CN3CCc4c([nH]c5cc(OC)ccc45)C3CC2C(C(=O)OC)C1OC (stereo not given) | 187 mg/kg
20 | O=C1NS(=O)(=O)c2ccccc21 | 14200 mg/kg
21 | CC(C)=CCC1=C(O)C(C(=O)CC(C)C)=C(O)C(CC=C(C)C)(CC=C(C)C)C1=O | 100 mg/kg
22 | CN(C)CCN | 1140 mg/kg
23 | C/C=C1/C[C@@H](C)[C@](O)(CO)C(=O)OCC2=CCN3CC[C@@H](OC1=O)[C@@H]23 | 34 mg/kg
24 | CC(=O)Nc1ccc(OCC(O)CNC(C)C)cc1 (stereo not given) | 3460 mg/kg
25 | O=C1[C@H]2C[C@@H]3[C@@H]4[C@H]2[C@]2(Cl)[C@@H](Cl)[C@](Cl)([C@H]13)[C@@]4(Cl)C2(Cl)Cl (racemic) | 10 mg/kg
26 | C=COCCSCC | 4920 mg/kg
27 | NCCCC[C@H](N)C(=O)O | 11400 mg/kg and 10000 mg/kg

Row | SMILES | LD50
28 | C=C(C)C1CC=C(C)C(=O)C1 (racemic) | 1640 mg/kg
29 | CCC(C)OC(C[n+]1ccccc1)c1cccc(Cl)c1 (stereo not given) | 250 mg/kg
30 | Cc1ncc(CO)c(C=O)c1O | 2150 mg/kg
31 | CCS(=O)(=O)Cl | 360 mg/kg
32 | O=C(NC[P+](CO)(CO)CO)NC[P+](CO)(CO)CO | 245 mg/kg
33 | COC(=O)C1=C(C)NC(C)=C(C(=O)OC)C1c1ccccc1[N+](=O)[O-] | 1020 mg/kg
34 | CCCCC(CC)CCl (stereo not given) | 7340 mg/kg
35 | COc1ccc(OCC(=O)N[C@@H]2C(=O)N3[C@@H]2SC(C)(C)[C@@H]3C(=O)O)cc1F | 7000 mg/kg
36 | Cc1nc(C)c(C)nc1C | 1910 mg/kg
37 | COC(=O)c1ccc2nc(C(F)(F)F)[nH]c2c1 | 22.3 mg/kg
38 | NNCCc1ccccc1 | 210 mg/kg
39 | N#CCCC1CN2CCc3cc4c(cc3C2CC1=O)OCO4 (stereo not given) | 1410 mg/kg
40 | O=C1C2=C(CCCC2)C(=O)N1c1ccc(Cl)cc1 | 24000 mg/kg
41 | CCCCCCCCCCNCCCCCCCC | 2400 mg/kg
42 | O=C(O)/C=C\Cl | 320 mg/kg
43 | CC(c1ccccc1)c1ccc(O)cc1O (stereo not given) | 500 mg/kg
44 | CC(C)=CCOC(=O)c1ccccc1 | 4700 mg/kg
45 | CN(C)N=Nc1ccc(I)cc1 | 574 mg/kg
46 | CCC1OCCSC1=NOC(=O)NC (stereo not given) | 19 mg/kg
47 | COP(=S)(OC(C)C)SCN1C(=O)c2ccccc2C1=O (stereo not given) | 50 mg/kg
48 | O=C(O)Cc1ccccc1Nc1c(Cl)cc(O)cc1Cl | 190 mg/kg
49 | NCC(O)c1ccc(O)cc1 (stereo not given) | 1240 mg/kg and 1090 mg/kg
50 | CCOC(=O)Cc1ccc(-c2ccccc2)cc1 | 385 mg/kg
51 | O=NN(CCCl)C(=O)NCCS(=O)(=O)NCc1ccccc1 | 250 mg/kg
52 | O=C1C=CC[C@@H]2[C@H]3CCCN4CCC[C@@H](CN12)[C@@H]34 | 196 mg/kg
53 | CCCCCCCC/C=C\CCCCCCCC(=O)NCC[N+]1(C)CCN=C1CCCCCCC/C=C\CCCCCCCC (stereo not given) | 24400 mg/kg
54 | C=CCC1(C2C=CCC2)C(=O)N=C(O)NC1=O (stereo not given) | 205 mg/kg

Row | SMILES | LD50
55 | Cc1ccc(S(=O)(=O)NC(=O)NC2C3CCC(C)(C2O)C3(C)C)cc1 (stereo not given) | 18000 mg/kg
56 | CC(=O)Oc1ccc(Oc2c(I)cc(C(=O)O)cc2I)cc1I | 4600 mg/kg
57 | O=[N+]([O-])c1cccc2nc3ccccc3c(NCCN(CCO)CCO)c12 | 176 mg/kg
58 | COC(=O)[C@@](C)(N)Cc1ccc(O)c(C)c1 | 1400 mg/kg
59 | CC(C)[N+](C)(CCC(C(N)=O)(c1ccccc1)c1ccccc1)C(C)C | 1030 mg/kg
60 | O=[N+]([O-])c1ccc(NS(=O)(=O)c2ccc(Cl)c(C(F)(F)F)c2)c(Cl)c1 | 132 mg/kg
61 | COC(=O)c1c(Cl)c(Cl)c(C(=O)SC)c(Cl)c1Cl | 3300 mg/kg
62 | CC(C)Oc1cccc(C2CC(=O)NC2=O)c1 (stereo not given) | 2400 mg/kg
63 | COc1ccc2c(c1)c1c3n2CCN(C)C3=NCC1 | 1400 mg/kg
64 | CCCOc1cc(C=CC(=S)OCC)ccc1OC | 970 mg/kg
65 | CCOCCOC(=O)C(C)Oc1ccc(Oc2ncc(C(F)(F)F)cc2Cl)cc1 (stereo not given) | 518 mg/kg
66 | O=C1CCc2cc(CCCN3CCN(c4ccccc4)CC3)ccc2N1 | 500 mg/kg
67 | CCCc1ccc(O)cc1 | 500 mg/kg
68 | NCCOCCN | 961 mg/kg
69 | OCP(CO)CO | 178 mg/kg
70 | CC(=O)C=Cc1ccccc1 | 2030 mg/kg
71 | O=C(O)CF | 4.68 mg/kg
72 | CC(=O)OCCC(Cl)C(C)=O (stereo not given) | 2050 mg/kg
73 | Cl[C@H]1[C@H](Cl)[C@@H](Cl)[C@H](Cl)[C@@H](Cl)[C@H]1Cl (racemic) | 1000 mg/kg
74 | COc1cc(S(C)=O)ccc1-c1nc2ncccc2[nH]1 (stereo not given) | 315 mg/kg
75 | CCCN1C(=O)C2C3C=C(C(O)(c4ccccc4)c4ccccn4)C(C3=C(c3ccccc3)c3ccccn3)C2C1=O (stereo not given) | 34.5 mg/kg
76 | CCOCCC(=O)O | 4800 mg/kg
77 | CC(C)=C[C@@H]1[C@@H](C(=O)OCc2coc(Cc3ccccc3)c2)C1(C)C | 1240 mg/kg
78 | O=NN(CCCl)C(=O)NC1CCCCC1 | 70 mg/kg
79 | COC(=O)CCC[N+](C)(C)C | 478 mg/kg
80 | Sc1nc2ccccc2s1 | 100 mg/kg
81 | CCCSc1cc(Oc2ccc([N+](=O)[O-])cc2)ccc1Cl | 1130 mg/kg

Row | SMILES | LD50
82 | C1OCC(COCC2COCO2)O1 (stereo not given) | 5150 mg/kg
83 | CCOc1ccc(-n2c(C)nc3ccccc3c2=O)cc1 | 4800 mg/kg
84 | CCOCCOc1ccc(Cl)cc1Cl | 1410 mg/kg
85 | CC1=CC(=C2C(=O)c3ccccc3C2=O)C=CN1CCN1CCCCC1 | 390 mg/kg
86 | Cc1cc([N+](=O)[O-])ccc1S(=O)(=O)NCCO | 4470 mg/kg
87 | Oc1ccc(Cc2ccc(O)cc2)cc1 | 4950 mg/kg
88 | Clc1cc(Cl)c(Cl)c(Cl)c1 | 1730 mg/kg
89 | CC(C)N1C(=O)c2ccccc2NS1(=O)=O | 1100 mg/kg
90 | CCOCCc1ccc(OCCN=c2[nH]cnc(CC)c2Cl)c(C)c1C | 115 mg/kg
91 | Nc1ccc2ccc3cccc4ccc1c2c34 | 1070 mg/kg
92 | CSC | 3300 mg/kg
93 | Nc1ccc(C=Cc2ccc([N+](=O)[O-])cc2S(=O)(=O)O)c(S(=O)(=O)O)c1 | 14200 mg/kg
94 | Cc1cc(N)n(-c2ccccc2)n1 | 2500 mg/kg
95 | N#CC1(O)CCCCC1 | 10 mg/kg
96 | N#CCCCCC(=O)O | 1000 mg/kg
97 | Cc1ccc(=O)n(-c2ccccc2)c1 | 1300 mg/kg
98 | CCCCCCCC(=O)OCC | 26000 mg/kg
99 | CC(=C(CCO)SSCC1CCCO1)N(C=O)Cc1cnc(C)nc1N (stereo not given) | 2200 mg/kg
100 | CCc1cc(CC)cc(OC(=O)NC)c1 | 1600 mg/kg
101 | O=COCCc1ccccc1 | 3220 mg/kg
102 | O=[N+]([O-])c1c(Br)ccc2[nH]c(C(F)(F)F)nc12 | 13.5 mg/kg
103 | O=C(O)CCCNS(=O)(=O)c1cccc(C(F)(F)F)c1 | 13000 mg/kg
104 | CCCCC(CC)COC(=O)c1ccccc1C(=O)OCC(CC)CCCC (stereo not given) | 30000 mg/kg
105 | CCO[Si](C)(C)c1ccccc1 | 2460 mg/kg
